In the supplement of paper PMC10307832:

compound: CC(C)(C)c1nc(-c2cccc(NS(=O)(=O)c3c(F)cccc3F)c2F)c(-c2ccnc(N)n2)s1 [Dabrafenib] + CS(=O)(=O)N1CCN(Cc2cc3nc(-c4cccc5[nH]ncc45)nc(N4CCOCC4)c3s2)CC1 [Pictilisib] (partner 1 µM); test: relative viability (nuclei count vs DMSO), 5 days (fraction); higher = more cells survive; settings: first compound 0.3 µM
In short: (§1)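 Medians of duplicate plates are given as relative viability. That measure is the nuclei count in treated wells divided by the count in vehicle wells. Counts were taken on 4× images of lung cancer cell lines in 1536-well plates, 5 days after pin-tool dosing the day after seeding with one drug alone or a fixed anchor-drug dose plus five library-drug doses (not always all listed) in √10 steps.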

First: NCI-H727
Second: NCI-H1975
The relative viability of the first is higher: 0.401 for the first, 0.234 for the second.

Going from LK-2 to HCC-366, the relative viability falls from 0.748 to 0.118.

Going from NCI-H2087 to LCLC-97TM1, the relative viability falls from 0.703 to 0.149.

First: NCI-H661
Second: NCI-H2405
The relative viability of the first is higher: 0.48 for the first, 0.316 for the second.

compound: NC(=O)c1ccc(N(C(N)=O)c2c(F)cccc2F)nc1-c1ccc(F)cc1F [VX-702] + CS(=O)(=O)CCNCc1ccc(-c2ccc3ncnc(Nc4ccc(OCc5cccc(F)c5)c(Cl)c4)c3c2)o1 [Lapatinib] (partner 2 µM); test: as above; settings: first compound 0.02 µM
In short: as §1

First: A-427
Second: NCI-H1355
The relative viability of the first is higher: 1.17 for the first, 1.09 for the second.

First: NCI-H1792
Second: HCC-15
The relative viability of the first is higher: 0.965 for the first, 0.837 for the second.

First: LU99A
Second: EKVX
The relative viability of the first is higher: 0.948 for the first, 0.215 for the second.

First: Calu-6
Second: COR-L23
The relative viability of the first is higher: 1.07 for the first, 0.999 for the second.

Going from NCI-H1437 to RERF-LC-KJ, the relative viability rises from 0.779 to 0.891.

First: NCI-H1734
Second: BEN
The relative viability of the first is lower: 0.541 for the first, 0.726 for the second.

Going from NCI-H460 to H3255, the relative viability falls from 0.931 to 0.24.

Going from SK-LU-1 to NCI-H1793, the relative viability falls from 1.09 to 0.752.

Compared with NCI-H23, SW 1573 is lower in relative viability: 1.12 for the first, 1.05 for the second.

Going from NCI-H838 to EPLC-272H, the relative viability rises from 1.06 to 1.09.

Compared with NCI-H3122, NCI-H1563 is lower in relative viability: 1.07 for the first, 0.939 for the second.

First: NCI-H1915
Second: NCI-H727
The relative viability of the first is higher: 1.05 for the first, 0.88 for the second.

Going from NCI-H1975 to LK-2, the relative viability rises from 0.925 to 0.986.

Compared with HCC-366, NCI-H2087 is higher in relative viability: 1.03 for the first, 1.28 for the second.

First: LCLC-97TM1
Second: NCI-H661
The relative viability of the first is higher: 0.908 for the first, 0.498 for the second.

For NCI-H2405, the relative viability was 1.23.

same assay, conditions: first compound 0.2 µM

First: A-427
Second: NCI-H1355
The relative viability of the first is lower: 0.968 for the first, 0.984 for the second.

First: NCI-H1792
Second: HCC-15
The relative viability of the first is lower: 0.811 for the first, 0.838 for the second.

Compared with LU99A, EKVX is lower in relative viability: 1.02 for the first, 0.22 for the second.

Going from Calu-6 to COR-L23, the relative viability falls from 1.1 to 0.862.

Compared with NCI-H1437, RERF-LC-KJ is higher in relative viability: 0.753 for the first, 0.801 for the second.

Compared with NCI-H1734, BEN is lower in relative viability: 0.961 for the first, 0.662 for the second.

Going from NCI-H460 to H3255, the relative viability falls from 0.906 to 0.254.

Compared with SK-LU-1, NCI-H1793 is lower in relative viability: 0.885 for the first, 0.59 for the second.

Going from NCI-H23 to SW 1573, the relative viability rises from 1.01 to 1.13.

Compared with NCI-H838, EPLC-272H is lower in relative viability: 1.01 for the first, 0.751 for the second.

First: NCI-H3122
Second: NCI-H1563
The relative viability of the first is lower: 0.977 for the first, 0.991 for the second.

Compared with NCI-H1915, NCI-H727 is lower in relative viability: 1 for the first, 0.671 for the second.

Compared with NCI-H1975, LK-2 is lower in relative viability: 1.03 for the first, 0.727 for the second.

Going from HCC-366 to NCI-H2087, the relative viability falls from 1.15 to 1.1.

Going from LCLC-97TM1 to NCI-H661, the relative viability falls from 0.786 to 0.445.

With NCI-H2405 the relative viability was 0.761.

same assay, conditions: first compound 0.6325 µM

First: A-427
Second: NCI-H1355
The relative viability of the first is higher: 1.07 for the first, 0.998 for the second.

First: NCI-H1792
Second: HCC-15
The relative viability of the first is higher: 0.97 for the first, 0.857 for the second.

First: LU99A
Second: EKVX
The relative viability of the first is higher: 0.987 for the first, 0.226 for the second.

First: Calu-6
Second: COR-L23
The relative viability of the first is higher: 1.13 for the first, 0.914 for the second.

First: NCI-H1437
Second: RERF-LC-KJ
The relative viability of the first is higher: 0.972 for the first, 0.888 for the second.

First: NCI-H1734
Second: BEN
The relative viability of the first is higher: 1.05 for the first, 0.539 for the second.

Going from NCI-H460 to H3255, the relative viability falls from 1.14 to 0.26.

Going from SK-LU-1 to NCI-H1793, the relative viability falls from 0.887 to 0.817.

Going from NCI-H23 to SW 1573, the relative viability rises from 1.04 to 1.05.

Compared with NCI-H838, EPLC-272H is lower in relative viability: 1.13 for the first, 1.1 for the second.

Compared with NCI-H3122, NCI-H1563 is lower in relative viability: 1.04 for the first, 1.02 for the second.

Going from NCI-H1915 to NCI-H727, the relative viability falls from 1 to 0.818.

Compared with NCI-H1975, LK-2 is lower in relative viability: 0.961 for the first, 0.891 for the second.

First: HCC-366
Second: NCI-H2087
The relative viability of the first is higher: 1.23 for the first, 1.1 for the second.

Going from LCLC-97TM1 to NCI-H661, the relative viability falls from 1.3 to 0.505.

In the case of NCI-H2405, the relative viability was 1.02.

same assay, conditions: first compound 2 µM

Going from A-427 to NCI-H1355, the relative viability rises from 1.16 to 1.28.

First: NCI-H1792
Second: HCC-15
The relative viability of the first is higher: 1.08 for the first, 0.928 for the second.

Going from LU99A to EKVX, the relative viability falls from 0.982 to 0.127.

Compared with Calu-6, COR-L23 is higher in relative viability: 1.25 for the first, 1.26 for the second.

Going from NCI-H1437 to RERF-LC-KJ, the relative viability falls from 0.959 to 0.933.

Going from NCI-H1734 to BEN, the relative viability rises from 0.917 to 0.926.

Going from NCI-H460 to H3255, the relative viability falls from 0.984 to 0.241.

Going from SK-LU-1 to NCI-H1793, the relative viability falls from 1.29 to 0.987.

First: NCI-H23
Second: SW 1573
The relative viability of the first is higher: 1.25 for the first, 0.919 for the second.

Going from NCI-H838 to EPLC-272H, the relative viability rises from 1.35 to 1.59.

Compared with NCI-H3122, NCI-H1563 is lower in relative viability: 1.03 for the first, 0.691 for the second.

First: NCI-H1915
Second: NCI-H727
The relative viability of the first is higher: 1.07 for the first, 0.911 for the second.

Going from NCI-H1975 to LK-2, the relative viability falls from 1.22 to 0.895.

Going from HCC-366 to NCI-H2087, the relative viability rises from 0.791 to 1.16.

Compared with LCLC-97TM1, NCI-H661 is lower in relative viability: 0.947 for the first, 0.624 for the second.

In the case of NCI-H2405, the relative viability was 1.46.
